PubChem BioAssay AID623861 (Sanford-Burnham Center for Chemical Genomics, 2012)
Calls of active or inactive are those of the source.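 How the source made its calls: active means compounds whose EC50 for boosting single-cell stem cell survival is at or below a set limit; inactive means the rest.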

Tested on: human iPSC single-cell survival, ATP luminescence
Assay: enhancers of single-cell hiPSC survival, dose response, luminescence (AID 623861)

SMILES | EC50
CC(Oc1ccccc1)C(=O)Nc1nc(-c2ccncc2)cs1 (stereo not given) | 37.8 µM (inactive)
Cc1cccc(Cc2c(C)nc3c(C(=O)NCc4ccco4)cnn3c2C)c1 | > 80 µM (inactive)
NC(=O)CC(NC(=O)c1ccccc1)C(=O)O (stereo not given) | > 80 µM (inactive)
Cc1nnc2n(C3CCCCC3)c(=O)c3c4c(sc3n12)COC(C)(C)C4 | 38.5 µM (inactive)
COc1ccccc1Sc1nc(-c2ccccn2)ncc1OC | 40.8 µM (inactive)
Cc1ccc(C(=O)OCc2cc(=O)n3ccsc3n2)s1 | > 80 µM (inactive)
O=C(COc1ccccc1)Nc1nc(-c2ccncc2)cs1 | 15.9 µM
Cc1c(Nc2cc(Cl)c3nonc3c2[N+](=O)[O-])c(=O)n(-c2ccccc2)n1C | > 80 µM (inactive)
CC1CNCCN1S(=O)(=O)c1cccc2cnccc12 (stereo not given) | > 80 µM (inactive)
C[C@@H]1CN([C@@H](C)CO)C(=O)c2cc(Br)cnc2O[C@H]1CN(C)C(=O)C1CC1 | > 80 µM (inactive)
